Results published in PubChem BioAssay (NCI).
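Grown in 96-well plates, cells were treated for 48 hours with each compound at five concentrations. Insufficient inhibition: endpoint recorded as highest concentration tested. The concentration for full growth arrest is given as TGI.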

Columns and labels:
Assay in all cases: NCI-60 cell line screen, 48 h
786-0 renal = test system: 786-0 renal
A498 renal = test system: A498 renal
A549 NSCLC = test system: A549 NSCLC
ACHN renal = test system: ACHN renal
BT-549 breast = test system: BT-549 breast
CAKI-1 renal = test system: CAKI-1 renal
CCRF-CEM leukemia = test system: CCRF-CEM leukemia
COLO 205 colon = test system: COLO 205 colon
DU-145 prostate = test system: DU-145 prostate
EKVX NSCLC = test system: EKVX NSCLC
HCC-2998 colon = test system: HCC-2998 colon
HCT-116 colon = test system: HCT-116 colon
HCT-15 colon = test system: HCT-15 colon
HL-60(TB) leukemia = test system: HL-60(TB) leukemia
HOP-62 NSCLC = test system: HOP-62 NSCLC
HS 578T breast = test system: HS 578T breast
HT29 colon = test system: HT29 colon
IGROV1 ovarian = test system: IGROV1 ovarian
K-562 leukemia = test system: K-562 leukemia
KM12 colon = test system: KM12 colon
M14 melanoma = test system: M14 melanoma
MCF7 breast = test system: MCF7 breast
MDA-MB-231 breast = test system: MDA-MB-231 breast
MDA-N = test system: MDA-N
MOLT-4 leukemia = test system: MOLT-4 leukemia
NCI-H226 lung = test system: NCI-H226 lung
NCI-H23 lung = test system: NCI-H23 lung
NCI-H460 lung = test system: NCI-H460 lung
NCI-H522 lung = test system: NCI-H522 lung
NCI/ADR-RES ovarian = test system: NCI/ADR-RES ovarian
OVCAR-3 ovarian = test system: OVCAR-3 ovarian
OVCAR-4 ovarian = test system: OVCAR-4 ovarian
OVCAR-5 ovarian = test system: OVCAR-5 ovarian
OVCAR-8 ovarian = test system: OVCAR-8 ovarian
PC-3 prostate = test system: PC-3 prostate
SF-268 CNS = test system: SF-268 CNS
SF-295 CNS = test system: SF-295 CNS
SF-539 CNS = test system: SF-539 CNS
SK-MEL-2 melanoma = test system: SK-MEL-2 melanoma
SK-MEL-28 melanoma = test system: SK-MEL-28 melanoma
SK-MEL-5 melanoma = test system: SK-MEL-5 melanoma
SK-OV-3 ovarian = test system: SK-OV-3 ovarian
SN12C renal = test system: SN12C renal
SNB-19 CNS = test system: SNB-19 CNS
SNB-75 CNS = test system: SNB-75 CNS
SR leukemia = test system: SR leukemia
SW-620 colon = test system: SW-620 colon
T-47D breast = test system: T-47D breast
TK-10 renal = test system: TK-10 renal
U251 CNS = test system: U251 CNS
UACC-257 melanoma = test system: UACC-257 melanoma
UACC-62 melanoma = test system: UACC-62 melanoma
LOX IMVI melanoma = test system: LOX IMVI melanoma
MALME-3M melanoma = test system: MALME-3M melanoma
MDA-MB-435 = test system: MDA-MB-435
RPMI-8226 leukemia = test system: RPMI-8226 leukemia
RXF 393 renal = test system: RXF 393 renal
UO-31 renal = test system: UO-31 renal

CN=C1OC2(c3ccccc3)C3=C(OC(=NC)N2C)C(=O)OC3(c2ccccc2)N1C (stereo not given)
TGI (786-0 renal): > 100 µM
TGI (A498 renal): > 100 µM
TGI (A549 NSCLC): > 100 µM
TGI (ACHN renal): > 100 µM
TGI (BT-549 breast): > 100 µM
TGI (CAKI-1 renal): > 100 µM
TGI (CCRF-CEM leukemia): > 100 µM
TGI (COLO 205 colon): > 100 µM
TGI (DU-145 prostate): > 100 µM
TGI (EKVX NSCLC): > 100 µM
TGI (HCC-2998 colon): > 100 µM
TGI (HCT-116 colon): > 100 µM
TGI (HCT-15 colon): > 100 µM
TGI (HL-60(TB) leukemia): > 100 µM
TGI (HOP-62 NSCLC): > 100 µM
TGI (HS 578T breast): > 100 µM
TGI (HT29 colon): > 100 µM
TGI (IGROV1 ovarian): > 100 µM
TGI (K-562 leukemia): > 100 µM
TGI (KM12 colon): > 100 µM
TGI (M14 melanoma): > 100 µM
TGI (MCF7 breast): > 100 µM
TGI (MDA-MB-231 breast): > 100 µM
TGI (MDA-N): > 100 µM
TGI (MOLT-4 leukemia): > 100 µM
TGI (NCI-H226 lung): > 100 µM
TGI (NCI-H23 lung): > 100 µM
TGI (NCI-H460 lung): > 100 µM
TGI (NCI-H522 lung): > 100 µM
TGI (NCI/ADR-RES ovarian): > 100 µM
TGI (OVCAR-3 ovarian): > 100 µM
TGI (OVCAR-4 ovarian): > 100 µM
TGI (OVCAR-5 ovarian): > 100 µM
TGI (OVCAR-8 ovarian): > 100 µM
TGI (PC-3 prostate): > 100 µM
TGI (SF-268 CNS): > 100 µM
TGI (SF-295 CNS): > 100 µM
TGI (SF-539 CNS): > 100 µM
TGI (SK-MEL-2 melanoma): > 100 µM
TGI (SK-MEL-28 melanoma): > 100 µM
TGI (SK-MEL-5 melanoma): > 100 µM
TGI (SK-OV-3 ovarian): > 100 µM
TGI (SN12C renal): > 100 µM
TGI (SNB-19 CNS): > 100 µM
TGI (SNB-75 CNS): > 100 µM
TGI (SR leukemia): > 100 µM
TGI (SW-620 colon): > 100 µM
TGI (T-47D breast): > 100 µM
TGI (TK-10 renal): > 100 µM
TGI (U251 CNS): > 100 µM
TGI (UACC-257 melanoma): > 100 µM
TGI (UACC-62 melanoma): > 100 µM

CC1CC(C#N)=C2NCCN2C1=O (stereo not given)
TGI (786-0 renal): > 100 µM
TGI (A549 NSCLC): > 100 µM
TGI (BT-549 breast): > 100 µM
TGI (CAKI-1 renal): > 100 µM
TGI (CCRF-CEM leukemia): > 100 µM
TGI (COLO 205 colon): 37.4 µM
TGI (DU-145 prostate): > 100 µM
TGI (EKVX NSCLC): > 100 µM
TGI (HCC-2998 colon): > 100 µM
TGI (HCT-15 colon): > 100 µM
TGI (HL-60(TB) leukemia): > 100 µM
TGI (HOP-62 NSCLC): > 100 µM
TGI (HS 578T breast): > 100 µM
TGI (HT29 colon): > 100 µM
TGI (IGROV1 ovarian): > 100 µM
TGI (K-562 leukemia): > 100 µM
TGI (KM12 colon): > 100 µM
TGI (LOX IMVI melanoma): > 100 µM
TGI (M14 melanoma): 33.5 µM
TGI (MALME-3M melanoma): > 100 µM
TGI (MCF7 breast): 50.7 µM
TGI (MDA-MB-231 breast): > 100 µM
TGI (MDA-MB-435): 50.1 µM
TGI (MDA-N): 31.8 µM
TGI (MOLT-4 leukemia): > 100 µM
TGI (NCI-H226 lung): > 100 µM
TGI (NCI-H23 lung): > 100 µM
TGI (NCI-H460 lung): > 100 µM
TGI (NCI-H522 lung): > 100 µM
TGI (NCI/ADR-RES ovarian): > 100 µM
TGI (OVCAR-3 ovarian): > 100 µM
TGI (OVCAR-4 ovarian): > 100 µM
TGI (OVCAR-8 ovarian): > 100 µM
TGI (PC-3 prostate): > 100 µM
TGI (RPMI-8226 leukemia): > 100 µM
TGI (RXF 393 renal): > 100 µM
TGI (SF-268 CNS): > 100 µM
TGI (SF-295 CNS): > 100 µM
TGI (SF-539 CNS): > 100 µM
TGI (SK-MEL-2 melanoma): > 100 µM
TGI (SK-MEL-28 melanoma): > 100 µM
TGI (SK-MEL-5 melanoma): 28.5 µM
TGI (SK-OV-3 ovarian): > 100 µM
TGI (SN12C renal): > 100 µM
TGI (SNB-19 CNS): > 100 µM
TGI (SNB-75 CNS): > 100 µM
TGI (SR leukemia): > 100 µM
TGI (SW-620 colon): > 100 µM
TGI (T-47D breast): > 100 µM
TGI (TK-10 renal): > 100 µM
TGI (U251 CNS): > 100 µM
TGI (UACC-257 melanoma): > 100 µM
TGI (UO-31 renal): > 100 µM
